Reference: ChEMBL document CHEMBL1201862, “PubChem BioAssay data set” (2004)
Calls of active or inactive are those of the source.

How the values were obtained:
[1] = molecular target: T1, Alkaline phosphatase, tissue-nonspecific isozyme (Homo sapiens, UniProt P05186)
T1 sequence (P05186 whole entry): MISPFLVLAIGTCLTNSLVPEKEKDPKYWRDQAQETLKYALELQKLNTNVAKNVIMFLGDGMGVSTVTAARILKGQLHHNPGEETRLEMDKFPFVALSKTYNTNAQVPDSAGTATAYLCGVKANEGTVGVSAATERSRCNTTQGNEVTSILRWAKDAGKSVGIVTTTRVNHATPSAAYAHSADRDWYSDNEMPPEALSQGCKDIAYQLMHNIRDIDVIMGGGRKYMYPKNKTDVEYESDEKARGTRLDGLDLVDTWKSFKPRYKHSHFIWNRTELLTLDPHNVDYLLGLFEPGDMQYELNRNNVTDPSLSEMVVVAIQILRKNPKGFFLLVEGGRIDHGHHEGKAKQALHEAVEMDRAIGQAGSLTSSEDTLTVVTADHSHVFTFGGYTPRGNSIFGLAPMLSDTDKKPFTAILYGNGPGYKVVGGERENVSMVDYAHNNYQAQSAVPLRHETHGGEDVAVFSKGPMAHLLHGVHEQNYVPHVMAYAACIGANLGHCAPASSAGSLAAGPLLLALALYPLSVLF

[2] = nonselective inhibitors of cellular cAMP signaling, dose response, counter-screen for MC4R biased antagonist project, cell-based, TR-FRET cAMP detection (AID 602305); type: functional;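 further: U2OS cells stimulated with forskolin near its EC80 as the cAMP inducer; potency is for inhibition of forskolin-stimulated cAMP signaling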
[3] = molecular target: T2, Replicative DNA helicase DnaB (Mycobacterium tuberculosis, UniProt P9WMR3); assay: DnaB intein splicing inhibitors, dose response, biochemical, cell-free fluorescence (AID 449749); type: functional
T2 sequence (P9WMR3 whole entry): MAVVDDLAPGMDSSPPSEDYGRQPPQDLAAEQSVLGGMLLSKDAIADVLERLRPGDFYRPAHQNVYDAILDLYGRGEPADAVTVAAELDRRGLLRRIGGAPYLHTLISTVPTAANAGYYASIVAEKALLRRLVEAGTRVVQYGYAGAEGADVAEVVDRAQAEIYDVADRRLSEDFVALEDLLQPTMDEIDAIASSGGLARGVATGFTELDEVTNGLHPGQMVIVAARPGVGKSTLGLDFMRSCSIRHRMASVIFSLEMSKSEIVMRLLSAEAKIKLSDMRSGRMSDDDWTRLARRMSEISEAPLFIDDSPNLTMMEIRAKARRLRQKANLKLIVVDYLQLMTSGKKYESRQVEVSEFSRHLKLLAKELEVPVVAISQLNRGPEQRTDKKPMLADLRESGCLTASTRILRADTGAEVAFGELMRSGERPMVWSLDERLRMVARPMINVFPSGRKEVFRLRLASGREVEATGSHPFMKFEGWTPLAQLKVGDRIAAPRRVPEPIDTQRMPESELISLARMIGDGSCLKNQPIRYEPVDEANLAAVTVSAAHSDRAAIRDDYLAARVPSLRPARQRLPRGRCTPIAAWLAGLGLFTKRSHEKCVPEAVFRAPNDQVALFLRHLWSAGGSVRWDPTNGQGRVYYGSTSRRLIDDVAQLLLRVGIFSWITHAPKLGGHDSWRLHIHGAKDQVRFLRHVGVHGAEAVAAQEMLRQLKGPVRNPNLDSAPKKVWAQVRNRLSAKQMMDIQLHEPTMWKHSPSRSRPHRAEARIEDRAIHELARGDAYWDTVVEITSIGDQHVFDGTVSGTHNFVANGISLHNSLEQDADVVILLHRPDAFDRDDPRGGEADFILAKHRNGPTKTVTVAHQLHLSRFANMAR

[4] = molecular target: T3, Sphingosine 1-phosphate receptor 4 (Homo sapiens, UniProt O95977); assay: Fluorescence dose response cell-based high throughput screening assay for antagonists of the Sphingosine 1-Phosphate Receptor 4 (S1P4). [Related pubchem assays: 1524 (Confirmation in triplicates.), 1510 (Primary screen.)]; type: functional
T3 sequence (O95977 whole entry): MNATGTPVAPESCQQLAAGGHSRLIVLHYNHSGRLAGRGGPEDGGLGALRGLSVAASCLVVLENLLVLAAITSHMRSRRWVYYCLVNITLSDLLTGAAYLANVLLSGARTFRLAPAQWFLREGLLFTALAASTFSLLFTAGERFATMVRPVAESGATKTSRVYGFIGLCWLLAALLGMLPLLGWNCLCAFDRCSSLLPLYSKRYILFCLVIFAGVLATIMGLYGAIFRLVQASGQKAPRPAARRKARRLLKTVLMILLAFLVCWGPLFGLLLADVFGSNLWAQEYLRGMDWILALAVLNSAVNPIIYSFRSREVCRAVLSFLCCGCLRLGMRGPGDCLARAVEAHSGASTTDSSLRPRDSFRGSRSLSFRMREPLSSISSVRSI

[5] = test system: BJ; assay: cells; type: functional, cell-based; details: Homo sapiens
[6] = molecular target: Sphingosine 1-phosphate receptor 1 (Homo sapiens, UniProt P21453); type: functional;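 further: Tango beta-arrestin reporter U2OS cells stimulated with S1P near its EC80; inhibitor potency meaning antagonism of receptor activation by the natural agonist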
Chain of Sphingosine 1-phosphate receptor 1 (P21453 whole entry): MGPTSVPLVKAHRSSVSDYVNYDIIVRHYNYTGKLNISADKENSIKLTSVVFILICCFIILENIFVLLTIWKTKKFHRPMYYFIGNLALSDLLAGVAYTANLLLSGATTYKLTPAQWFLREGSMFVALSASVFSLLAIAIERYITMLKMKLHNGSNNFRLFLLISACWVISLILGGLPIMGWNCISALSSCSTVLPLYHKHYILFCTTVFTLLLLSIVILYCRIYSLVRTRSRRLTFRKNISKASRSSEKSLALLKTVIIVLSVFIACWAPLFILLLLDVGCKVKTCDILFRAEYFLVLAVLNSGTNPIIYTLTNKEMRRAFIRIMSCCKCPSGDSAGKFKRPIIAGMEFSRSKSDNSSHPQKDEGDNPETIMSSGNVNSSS

[7] = molecular target: Melanocortin receptor 4 (Homo sapiens, UniProt P32245); assay: MC4R antagonist potency on cAMP, dose response, cell-based, TR-FRET, biased antagonists (AID 602298); type: functional;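 further: antagonist potency against agonist-stimulated cAMP production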
[8] = molecular target: T4, Protein RecA (Mycobacterium tuberculosis, UniProt P9WHJ3); assay: Fluorescence Cell-Free Homogeneous Dose Retest to Identify Inhibitors of RecA-Intein Splicing Activity. [Related pubchem assays (depositor defined):AID2097, AID2223, AID489010, AID492950]; type: functional
T4 sequence (P9WHJ3 whole entry): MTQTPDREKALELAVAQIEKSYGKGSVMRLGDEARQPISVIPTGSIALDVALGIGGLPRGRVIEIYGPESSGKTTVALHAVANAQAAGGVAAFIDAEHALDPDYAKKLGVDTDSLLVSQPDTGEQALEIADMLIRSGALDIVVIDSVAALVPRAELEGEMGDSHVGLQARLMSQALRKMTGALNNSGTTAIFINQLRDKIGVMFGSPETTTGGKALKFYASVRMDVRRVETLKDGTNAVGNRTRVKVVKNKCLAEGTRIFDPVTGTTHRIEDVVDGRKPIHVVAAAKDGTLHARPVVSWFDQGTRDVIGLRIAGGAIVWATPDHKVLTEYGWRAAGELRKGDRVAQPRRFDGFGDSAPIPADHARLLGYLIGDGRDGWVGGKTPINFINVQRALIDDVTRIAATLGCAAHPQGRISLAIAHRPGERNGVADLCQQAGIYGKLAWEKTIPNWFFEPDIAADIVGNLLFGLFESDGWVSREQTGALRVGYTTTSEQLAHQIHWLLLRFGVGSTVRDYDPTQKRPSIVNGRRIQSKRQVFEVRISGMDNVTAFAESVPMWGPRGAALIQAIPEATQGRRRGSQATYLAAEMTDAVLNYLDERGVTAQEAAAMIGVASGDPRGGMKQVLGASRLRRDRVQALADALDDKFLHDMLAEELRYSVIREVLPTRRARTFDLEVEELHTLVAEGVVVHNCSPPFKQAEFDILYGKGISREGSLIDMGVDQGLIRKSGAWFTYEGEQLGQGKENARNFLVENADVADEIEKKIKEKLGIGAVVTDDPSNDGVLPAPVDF

[9] = cytotoxicity toward DRD oncogenic fibroblasts, dose response, cell-based, non-viral oncogenic, luminescence (AID 1934); type: functional; details: Homo sapiens
[10] = test system: BJ; assay: cytotoxicity toward BJ-TERT fibroblasts, dose response, cell-based, RAS-independent, luminescence (AID 1933); type: functional; details: Homo sapiens
[11] = test system: BJ; assay: cytotoxicity toward BJ-TERT-LT-ST fibroblasts, dose response, cell-based, RAS-independent, luminescence (AID 1935); type: functional; details: Homo sapiens;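 further: BJ fibroblasts immortalized with TERT plus LT and ST oncogenes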
[12] = microbe, parasite or virus in culture; type: functional; details: Mycobacterium tuberculosis
[13] = molecular target: T5, Neuropeptide Y receptor type 2 (Homo sapiens, UniProt P49146); type: functional, cell-based;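 further: HEK293 cells expressing the receptor and a CNG channel; stimulus was NPY near EC95 followed by isoproterenol to raise cAMP; antagonist potency measured as restoring cAMP signal that NPY suppresses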
T5 sequence (P49146 whole entry): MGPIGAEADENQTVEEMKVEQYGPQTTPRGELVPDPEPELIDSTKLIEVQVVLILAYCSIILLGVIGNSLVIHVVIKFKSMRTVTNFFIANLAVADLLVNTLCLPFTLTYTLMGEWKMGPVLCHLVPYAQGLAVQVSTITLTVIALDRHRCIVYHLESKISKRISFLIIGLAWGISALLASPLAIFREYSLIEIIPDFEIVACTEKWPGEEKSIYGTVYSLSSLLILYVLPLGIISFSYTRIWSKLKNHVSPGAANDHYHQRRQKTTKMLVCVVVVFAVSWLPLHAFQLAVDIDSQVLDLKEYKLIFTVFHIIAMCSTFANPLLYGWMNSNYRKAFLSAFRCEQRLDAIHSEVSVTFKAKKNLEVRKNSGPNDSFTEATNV

[14] = molecular target: T6, Neuropeptide Y receptor type 1 (Homo sapiens, UniProt P25929); type: functional;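 further: HEK293 cells with a CNG channel challenged with NPY then isoproterenol; potency as antagonist that reverses NPY suppression of cAMP signal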
T6 sequence (P25929 whole entry): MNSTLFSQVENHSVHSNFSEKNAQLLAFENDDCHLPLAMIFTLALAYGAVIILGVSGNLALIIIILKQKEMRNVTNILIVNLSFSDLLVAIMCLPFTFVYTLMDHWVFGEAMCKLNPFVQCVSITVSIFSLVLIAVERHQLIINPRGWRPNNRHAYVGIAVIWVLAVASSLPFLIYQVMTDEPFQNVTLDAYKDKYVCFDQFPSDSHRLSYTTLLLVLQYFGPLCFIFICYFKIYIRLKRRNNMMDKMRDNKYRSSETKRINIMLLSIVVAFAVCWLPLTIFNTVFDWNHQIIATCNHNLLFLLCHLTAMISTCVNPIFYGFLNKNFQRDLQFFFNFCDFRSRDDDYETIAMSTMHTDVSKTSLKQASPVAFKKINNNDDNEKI

[15] = molecular target: Transitional endoplasmic reticulum ATPase (Homo sapiens, UniProt P55072); assay: p97 ATPase inhibitors, dose response, biochemical (AID 1534)
[16] = molecular target: NS3 (Hepatitis C virus, UniProt A3EZJ3); assay: PubChem AID 2173; parameters: species or system Hepacivirus hominis
Chain of NS3 (A3EZJ3 whole entry): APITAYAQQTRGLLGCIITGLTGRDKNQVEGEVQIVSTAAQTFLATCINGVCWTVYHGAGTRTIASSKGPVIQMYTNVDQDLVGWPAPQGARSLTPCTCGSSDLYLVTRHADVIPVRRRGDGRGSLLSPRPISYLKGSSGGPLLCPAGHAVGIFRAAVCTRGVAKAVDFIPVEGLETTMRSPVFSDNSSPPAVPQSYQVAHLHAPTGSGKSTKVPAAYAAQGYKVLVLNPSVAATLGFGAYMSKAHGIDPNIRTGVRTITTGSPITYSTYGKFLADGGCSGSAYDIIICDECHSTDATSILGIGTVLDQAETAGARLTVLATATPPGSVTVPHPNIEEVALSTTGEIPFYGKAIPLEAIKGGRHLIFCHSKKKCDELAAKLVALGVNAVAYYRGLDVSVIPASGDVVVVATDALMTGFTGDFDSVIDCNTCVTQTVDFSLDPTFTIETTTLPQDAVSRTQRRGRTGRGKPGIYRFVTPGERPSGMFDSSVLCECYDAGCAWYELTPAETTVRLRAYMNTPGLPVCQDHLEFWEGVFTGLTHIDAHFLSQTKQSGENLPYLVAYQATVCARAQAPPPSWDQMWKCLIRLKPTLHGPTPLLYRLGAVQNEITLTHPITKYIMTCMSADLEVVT

[17] = molecular target: Transitional endoplasmic reticulum ATPase (Homo sapiens, UniProt P55072, C522A); assay: C522A mutant p97 ATPase inhibitors, dose response, counter-screen for p97 inhibitor project, biochemical, luminescence (AID 1544)
Chain of Transitional endoplasmic reticulum ATPase (Homo sapiens, UniProt P55072, C522A) (P55072 2-806 C522A limits assumed): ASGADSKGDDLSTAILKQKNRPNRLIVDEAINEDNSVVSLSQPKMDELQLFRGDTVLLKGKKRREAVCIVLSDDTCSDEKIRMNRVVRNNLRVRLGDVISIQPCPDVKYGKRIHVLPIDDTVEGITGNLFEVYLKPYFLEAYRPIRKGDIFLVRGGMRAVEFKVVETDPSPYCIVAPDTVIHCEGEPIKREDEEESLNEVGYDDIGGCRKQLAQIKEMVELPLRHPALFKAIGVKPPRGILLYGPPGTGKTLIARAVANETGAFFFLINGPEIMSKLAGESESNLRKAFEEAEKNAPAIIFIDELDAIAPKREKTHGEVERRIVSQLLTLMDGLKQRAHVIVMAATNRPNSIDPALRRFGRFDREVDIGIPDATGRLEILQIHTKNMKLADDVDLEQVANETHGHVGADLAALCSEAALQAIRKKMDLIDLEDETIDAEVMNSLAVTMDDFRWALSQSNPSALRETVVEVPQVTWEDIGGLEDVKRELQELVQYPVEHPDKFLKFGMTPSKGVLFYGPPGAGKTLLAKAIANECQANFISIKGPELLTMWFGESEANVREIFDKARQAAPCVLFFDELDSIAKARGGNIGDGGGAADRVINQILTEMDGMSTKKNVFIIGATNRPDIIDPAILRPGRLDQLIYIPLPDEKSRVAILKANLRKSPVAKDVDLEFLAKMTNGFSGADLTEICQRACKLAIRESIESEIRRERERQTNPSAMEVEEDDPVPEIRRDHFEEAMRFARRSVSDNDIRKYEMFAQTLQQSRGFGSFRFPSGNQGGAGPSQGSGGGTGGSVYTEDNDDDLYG

[18] = molecular target: Photoreceptor-specific nuclear receptor (Homo sapiens, UniProt Q9Y5X4); type: functional;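 further: potency for compounds that break the NR2E3 corepressor complex and count as activators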
[19] = molecular target: Peroxisome proliferator-activated receptor gamma/Nuclear receptor corepressor 2 (Homo sapiens, UniProt P37231+Q9Y618); type: functional
Chain of Peroxisome proliferator-activated receptor gamma/Nuclear receptor corepressor 2 (P37231 whole entry): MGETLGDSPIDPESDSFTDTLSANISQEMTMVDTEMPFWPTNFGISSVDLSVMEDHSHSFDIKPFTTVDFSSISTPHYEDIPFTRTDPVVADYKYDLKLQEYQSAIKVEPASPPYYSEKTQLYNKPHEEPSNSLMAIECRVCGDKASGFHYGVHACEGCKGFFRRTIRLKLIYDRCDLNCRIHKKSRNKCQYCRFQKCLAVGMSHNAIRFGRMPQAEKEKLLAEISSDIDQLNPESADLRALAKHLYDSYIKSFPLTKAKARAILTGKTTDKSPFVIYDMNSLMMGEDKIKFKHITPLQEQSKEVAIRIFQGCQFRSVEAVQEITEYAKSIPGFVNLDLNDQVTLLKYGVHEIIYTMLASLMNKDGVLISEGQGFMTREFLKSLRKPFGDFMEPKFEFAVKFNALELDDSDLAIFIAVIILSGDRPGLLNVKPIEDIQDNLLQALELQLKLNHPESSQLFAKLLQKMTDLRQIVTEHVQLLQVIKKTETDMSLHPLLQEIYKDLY
Chain of Peroxisome proliferator-activated receptor gamma/Nuclear receptor corepressor 2 (Q9Y618 whole entry): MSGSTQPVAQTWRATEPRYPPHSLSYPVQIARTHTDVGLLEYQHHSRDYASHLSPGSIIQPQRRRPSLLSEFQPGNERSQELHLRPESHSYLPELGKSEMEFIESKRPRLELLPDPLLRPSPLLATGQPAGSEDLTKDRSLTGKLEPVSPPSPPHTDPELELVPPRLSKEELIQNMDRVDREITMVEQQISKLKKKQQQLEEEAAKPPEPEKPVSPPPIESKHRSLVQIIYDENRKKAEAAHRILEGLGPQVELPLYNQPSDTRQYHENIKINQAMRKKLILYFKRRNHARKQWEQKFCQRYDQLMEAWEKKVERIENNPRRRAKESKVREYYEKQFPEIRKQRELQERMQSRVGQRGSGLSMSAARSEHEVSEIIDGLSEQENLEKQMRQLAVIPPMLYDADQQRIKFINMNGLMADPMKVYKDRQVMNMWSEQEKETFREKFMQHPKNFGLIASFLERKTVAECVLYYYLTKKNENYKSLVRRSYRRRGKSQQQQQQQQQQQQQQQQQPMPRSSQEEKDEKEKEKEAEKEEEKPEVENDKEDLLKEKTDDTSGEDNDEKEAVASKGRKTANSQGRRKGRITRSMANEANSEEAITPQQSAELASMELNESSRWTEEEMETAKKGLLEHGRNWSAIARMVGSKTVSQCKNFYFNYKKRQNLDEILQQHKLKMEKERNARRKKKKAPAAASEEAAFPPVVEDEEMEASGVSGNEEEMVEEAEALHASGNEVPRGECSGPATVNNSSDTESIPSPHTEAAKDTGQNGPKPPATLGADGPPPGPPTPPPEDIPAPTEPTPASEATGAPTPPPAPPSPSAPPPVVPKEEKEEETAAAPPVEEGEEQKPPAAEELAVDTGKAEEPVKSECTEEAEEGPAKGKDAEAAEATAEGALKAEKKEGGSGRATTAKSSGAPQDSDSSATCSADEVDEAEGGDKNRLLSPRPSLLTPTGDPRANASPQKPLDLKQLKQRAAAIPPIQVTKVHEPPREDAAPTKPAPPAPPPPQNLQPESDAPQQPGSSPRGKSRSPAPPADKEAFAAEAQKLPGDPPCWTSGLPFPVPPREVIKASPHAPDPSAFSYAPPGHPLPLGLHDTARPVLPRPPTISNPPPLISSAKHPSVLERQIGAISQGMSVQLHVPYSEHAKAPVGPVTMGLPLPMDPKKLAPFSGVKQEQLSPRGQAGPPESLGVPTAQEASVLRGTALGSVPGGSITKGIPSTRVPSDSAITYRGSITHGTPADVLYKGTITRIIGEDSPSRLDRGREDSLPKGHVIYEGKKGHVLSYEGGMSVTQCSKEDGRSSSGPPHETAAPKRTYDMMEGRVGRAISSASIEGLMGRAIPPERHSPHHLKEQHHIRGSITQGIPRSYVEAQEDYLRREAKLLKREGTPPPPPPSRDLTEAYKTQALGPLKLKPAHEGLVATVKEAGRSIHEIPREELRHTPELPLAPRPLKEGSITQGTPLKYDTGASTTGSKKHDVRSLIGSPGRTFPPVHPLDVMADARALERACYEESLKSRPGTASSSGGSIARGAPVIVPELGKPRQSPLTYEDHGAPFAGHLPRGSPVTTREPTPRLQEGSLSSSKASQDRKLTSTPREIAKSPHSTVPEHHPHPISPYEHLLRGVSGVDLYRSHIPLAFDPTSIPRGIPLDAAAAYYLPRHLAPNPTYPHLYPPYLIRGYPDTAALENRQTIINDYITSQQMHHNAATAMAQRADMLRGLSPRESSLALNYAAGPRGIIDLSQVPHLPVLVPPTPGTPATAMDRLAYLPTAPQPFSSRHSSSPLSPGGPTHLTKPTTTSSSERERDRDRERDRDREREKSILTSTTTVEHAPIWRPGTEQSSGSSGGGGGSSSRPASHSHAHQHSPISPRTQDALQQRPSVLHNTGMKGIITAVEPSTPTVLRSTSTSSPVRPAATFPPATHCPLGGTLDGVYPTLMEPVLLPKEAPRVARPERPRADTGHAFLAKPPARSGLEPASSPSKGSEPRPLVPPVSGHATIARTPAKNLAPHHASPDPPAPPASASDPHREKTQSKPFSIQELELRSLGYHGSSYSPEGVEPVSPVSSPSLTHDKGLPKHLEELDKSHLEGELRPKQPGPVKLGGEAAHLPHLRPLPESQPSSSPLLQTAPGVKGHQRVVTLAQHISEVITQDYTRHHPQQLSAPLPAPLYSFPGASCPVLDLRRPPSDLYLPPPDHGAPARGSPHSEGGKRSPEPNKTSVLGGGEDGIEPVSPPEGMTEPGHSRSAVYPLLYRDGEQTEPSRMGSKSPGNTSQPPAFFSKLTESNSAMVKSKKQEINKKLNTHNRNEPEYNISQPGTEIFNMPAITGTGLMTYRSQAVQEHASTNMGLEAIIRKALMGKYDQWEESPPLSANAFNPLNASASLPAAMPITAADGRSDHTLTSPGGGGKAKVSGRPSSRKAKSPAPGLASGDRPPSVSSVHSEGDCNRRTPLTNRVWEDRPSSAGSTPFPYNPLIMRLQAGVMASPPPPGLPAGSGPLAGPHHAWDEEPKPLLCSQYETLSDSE

In the case of `CC(C)CN=C(S)NNC(=O)c1ccco1`, the EC50 [1] is reported as 73.9 µM (not active).

With `CC(=O)n1cc(N(C(=O)CCl)c2ccc(Cl)cc2)c2ccccc21` the IC50 [2] was > 64.5 µM (inactive), the AC50 [3] was 1.27 µM (active) and the IC50 [4] was 0.682 µM (active). The EC50 [5] was 2.5 µM (inconclusive), the IC50 [6] was 7.32 µM (active) and the IC50 [7] was > 64.5 µM (inactive). The EC50 [8] was 0.346 µM (active), the EC50 [9] was 1.37 µM (inconclusive) and the EC50 [10] was 0.198 µM (active). For the same compound, the EC50 [11] was 2.67 µM (active) and the CC50 [12] was 1.08 µM (active).

In the case of `Cc1ccc(C)c(NS(=O)(=O)c2cc(C(=O)Nc3ccccc3-c3ccccc3)ccc2Cl)c1`, the IC50 [13] is reported as 0.428 µM (active) and the IC50 [14] is reported as > 35 µM (not active).

In the case of `O=C(CCl)Nc1nc(-c2ccco2)c(-c2ccco2)s1`, the IC50 [15] is reported as > 50 µM (not active), the IC50 [16] is reported as 47.8 µM (not active) and the IC50 [17] is reported as > 50 µM (not active).

In the case of `Cc1cccc(NC(=O)CSc2ncnc3c2oc2ccccc23)c1`, the IC50 [18] is reported as > 39.8 µM (not active) and the IC50 [19] is reported as 3.35 µM (active).
